Measured values taken from ChEMBL document CHEMBL2439953, “Dimeric argininamide-type neuropeptide Y receptor antagonists: chiral discrimination between Y1 and Y4 receptors” (Bioorg Med Chem, 2013).

Tests used:
[1] = target: T1, Neuropeptide Y receptor type 4 (Homo sapiens, UniProt P50391); experiment: Antagonist activity at human neuropeptide Y receptor type 4 expressed in CHO cells co-expressing Gqi5-mtAEQ assessed as inhibition of hPP-induced calcium mobilization by Aequorin assay; assay type: functional, cell-based
[2] = target: T2, Neuropeptide Y receptor type 5 (Homo sapiens, UniProt Q15761); experiment: Binding affinity to human neuropeptide Y receptor type 5 receptor expressed in HEC-1B cells using Cy5-pNPY by flow cytometric analysis; assay type: cell-based
T2 sequence (Q15761 whole entry): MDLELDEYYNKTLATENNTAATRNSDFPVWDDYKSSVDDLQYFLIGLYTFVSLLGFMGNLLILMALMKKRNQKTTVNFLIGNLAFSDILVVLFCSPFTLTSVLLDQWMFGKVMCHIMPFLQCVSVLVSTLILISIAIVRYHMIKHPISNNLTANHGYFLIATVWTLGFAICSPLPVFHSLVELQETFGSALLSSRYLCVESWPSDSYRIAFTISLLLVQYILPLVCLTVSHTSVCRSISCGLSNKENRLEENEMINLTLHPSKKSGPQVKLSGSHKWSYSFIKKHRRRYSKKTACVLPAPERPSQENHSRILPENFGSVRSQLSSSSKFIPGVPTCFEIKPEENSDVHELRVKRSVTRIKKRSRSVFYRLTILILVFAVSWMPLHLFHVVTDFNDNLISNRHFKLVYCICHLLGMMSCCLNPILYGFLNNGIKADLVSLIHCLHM

[3] = target: T1, Neuropeptide Y receptor type 4; experiment: Binding affinity to human neuropeptide Y receptor type 4 receptor expressed in CHO cells using Cy5-[K4]-hPP by flow cytometric analysis; assay type: cell-based
[4] = target: T3, Neuropeptide Y receptor type 1 (Homo sapiens, UniProt P25929); experiment: Displacement of [3H]UR-MK114 from human neuropeptide Y receptor type 1 expressed in human SK-N-MC cells; assay type: cell-based
T3 sequence (P25929 whole entry): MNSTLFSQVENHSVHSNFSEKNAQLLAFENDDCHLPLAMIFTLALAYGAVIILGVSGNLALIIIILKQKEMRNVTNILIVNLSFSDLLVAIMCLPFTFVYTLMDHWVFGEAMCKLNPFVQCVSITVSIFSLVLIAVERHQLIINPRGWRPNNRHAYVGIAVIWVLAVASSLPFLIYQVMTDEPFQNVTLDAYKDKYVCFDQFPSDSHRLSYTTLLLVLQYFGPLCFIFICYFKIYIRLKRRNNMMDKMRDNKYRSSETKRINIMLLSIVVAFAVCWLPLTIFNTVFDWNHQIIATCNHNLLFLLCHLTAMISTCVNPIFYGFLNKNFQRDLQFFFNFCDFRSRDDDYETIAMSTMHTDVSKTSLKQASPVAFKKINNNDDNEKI

[5] = target: T4, Neuropeptide Y receptor type 2 (Homo sapiens, UniProt P49146); experiment: Binding affinity to human neuropeptide Y receptor type 2 receptor expressed in CHO cells using Cy5-pNPY by flow cytometric analysis; assay type: cell-based
T4 sequence (P49146 whole entry): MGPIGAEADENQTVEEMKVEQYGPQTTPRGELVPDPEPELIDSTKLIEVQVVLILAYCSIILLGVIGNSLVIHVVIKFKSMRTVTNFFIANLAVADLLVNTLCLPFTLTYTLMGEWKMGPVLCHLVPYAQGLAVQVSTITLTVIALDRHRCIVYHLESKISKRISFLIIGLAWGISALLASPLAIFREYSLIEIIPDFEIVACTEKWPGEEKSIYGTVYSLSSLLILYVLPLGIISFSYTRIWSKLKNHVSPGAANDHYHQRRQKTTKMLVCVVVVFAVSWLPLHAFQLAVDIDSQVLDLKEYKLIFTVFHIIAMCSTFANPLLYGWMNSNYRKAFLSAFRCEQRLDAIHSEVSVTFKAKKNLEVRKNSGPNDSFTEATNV

T1 sequence (P50391 whole entry): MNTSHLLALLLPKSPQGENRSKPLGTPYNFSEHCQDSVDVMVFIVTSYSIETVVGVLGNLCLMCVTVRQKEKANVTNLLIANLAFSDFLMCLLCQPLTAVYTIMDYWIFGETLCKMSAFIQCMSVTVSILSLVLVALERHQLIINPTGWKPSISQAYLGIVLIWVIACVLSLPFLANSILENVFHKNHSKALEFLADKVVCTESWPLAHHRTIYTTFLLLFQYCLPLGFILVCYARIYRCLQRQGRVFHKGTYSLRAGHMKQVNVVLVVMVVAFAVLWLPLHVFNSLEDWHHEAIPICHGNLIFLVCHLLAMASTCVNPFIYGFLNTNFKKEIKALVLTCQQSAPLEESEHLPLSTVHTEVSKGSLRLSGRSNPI

SMILES	Kb [1]	Ki [2]	Ki [3]	Ki [4]	Ki [5]
NCCC(=O)NCCNC(=O)CCC(=O)NCCNC(=O)CCC(=O)NCCNC(=O)/N=C(\N)NCCC[C@H](NC(=O)C(c1ccccc1)c1ccccc1)C(=O)NCc1ccc(CNC(N)=O)cc1	> 5000 nM	> 5000 nM	3500 nM	> 5000 nM	> 5000 nM
NC(N)=NCCC[C@H](NC(=O)C(c1ccccc1)c1ccccc1)C(=O)NCc1ccc(O)cc1	–	–	> 5000 nM	–	–
NCCNC(=O)CCC(=O)NCCNC(=O)CCC(=O)NCCNC(=O)/N=C(\N)NCCC[C@H](NC(=O)C(c1ccccc1)c1ccccc1)C(=O)NCc1ccc(CNC(N)=O)cc1	> 5000 nM	> 5000 nM	> 5000 nM	> 5000 nM	> 5000 nM
N=C(N)NCCCC(NC(=O)CC1(CC(=O)N2CCN(C3c4ccccc4NC(=O)c4ccccc43)CC2)CCCC1)C(=O)NCCn1c(=O)n(-c2ccccc2)n(-c2ccccc2)c1=O (single isomer, unassigned)	–	> 5000 nM	> 7500 nM	> 5000 nM	–
NCCCCNC(=O)/N=C(/N)NCCC[C@@H](NC(=O)C(c1ccccc1)c1ccccc1)C(=O)NCc1ccc(O)cc1	–	–	> 5000 nM	–	–
NCCNC(=O)CCC(=O)NCCNC(=O)CCC(=O)NCCNC(=O)/N=C(\N)NCCC[C@@H](NC(=O)C(c1ccccc1)c1ccccc1)C(=O)NCc1ccc(CNC(N)=O)cc1	–	–	> 5000 nM	1000 nM	–
NCCNC(=O)CCC(=O)NCCNC(=O)/N=C(\N)NCCC[C@H](NC(=O)C(c1ccccc1)c1ccccc1)C(=O)NCc1ccc(CNC(N)=O)cc1	> 5000 nM	–	4100 nM	> 5000 nM	> 5000 nM
N=C(N)NCCC[C@@H](NC(=O)C(c1ccccc1)c1ccccc1)C(=O)NCc1ccc(CNC(N)=O)cc1	> 5000 nM	–	> 5000 nM	–	–
NCCOCCOCCNC(=O)/N=C(/N)NCCC[C@H](NC(=O)C(c1ccccc1)c1ccccc1)C(=O)NCc1ccc(O)cc1	–	> 5000 nM	–	> 5000 nM	> 5000 nM
NCCCOCCOCCOCCNC(=O)CCC(=O)NCCNC(=O)/N=C(\N)NCCC[C@H](NC(=O)C(c1ccccc1)c1ccccc1)C(=O)NCc1ccc(CNC(N)=O)cc1	> 5000 nM	> 5000 nM	3700 nM	> 5000 nM	> 5000 nM
NCCOCCOCCNC(=O)CCC(=O)NCCNC(=O)/N=C(\N)NCCC[C@H](NC(=O)C(c1ccccc1)c1ccccc1)C(=O)NCc1ccc(CNC(N)=O)cc1	> 5000 nM	> 5000 nM	3200 nM	> 5000 nM	> 5000 nM
N=C(N)NCCC[C@@H](NC(=O)C(c1ccccc1)c1ccccc1)C(=O)NCc1ccc(CNC(=O)NCCCCNC(=O)NCCN)cc1	–	–	–	890 nM	–
NCCC(=O)NCCNC(=O)CCC(=O)NCCNC(=O)/N=C(\N)NCCC[C@H](NC(=O)C(c1ccccc1)c1ccccc1)C(=O)NCc1ccc(CNC(N)=O)cc1	> 5000 nM	> 5000 nM	3300 nM	> 5000 nM	> 5000 nM
N=C(N)NCCC[C@@H](NC(=O)C(c1ccccc1)c1ccccc1)C(=O)NCc1ccc(O)cc1	–	–	> 5000 nM	–	–
NCCN(CCNC(=O)c1ccc(C(=O)NCCOCCOCCNC(=O)/N=C(/N)NCCC[C@H](NC(=O)C(c2ccccc2)c2ccccc2)C(=O)NCc2ccc(O)cc2)cc1)CCNC(=O)c1ccc(C(=O)NCCOCCOCCNC(=O)/N=C(/N)NCCC[C@H](NC(=O)C(c2ccccc2)c2ccccc2)C(=O)NCc2ccc(O)cc2)cc1	27 nM	> 5000 nM	260 nM	> 5000 nM	1400 nM
NCCCCCCNC(=O)/N=C(/N)NCCC[C@H](NC(=O)CC1(CC(=O)N2CCN(C3c4ccccc4NC(=O)c4ccccc43)CC2)CCCC1)C(=O)NCCn1c(=O)n(-c2ccccc2)n(-c2ccccc2)c1=O (some centres undefined)	–	–	–	> 5000 nM	7 nM
NCCC(=O)NCCNC(=O)CCC(=O)NCCNC(=O)CCC(=O)NCCNC(=O)/N=C(\N)NCCC[C@@H](NC(=O)C(c1ccccc1)c1ccccc1)C(=O)NCc1ccc(CNC(N)=O)cc1	–	–	> 5000 nM	1200 nM	–

Second part, the compound after the results:

Kb [1]	Ki [2]	Ki [3]	Ki [4]	Ki [5]	SMILES
32 nM	> 5000 nM	550 nM	42 nM	1000 nM	NCCN(CCNC(=O)CCCCC(=O)NCCCCNC(=O)/N=C(/N)NCCC[C@@H](NC(=O)C(c1ccccc1)c1ccccc1)C(=O)NCc1ccc(O)cc1)CCNC(=O)CCCCC(=O)NCCCCNC(=O)/N=C(/N)NCCC[C@@H](NC(=O)C(c1ccccc1)c1ccccc1)C(=O)NCc1ccc(O)cc1
900 nM	> 5000 nM	2200 nM	200 nM	2300 nM	N=C(N)NCCC[C@@H](NC(=O)C(c1ccccc1)c1ccccc1)C(=O)NCc1ccc(CNC(=O)NCCCCNC(=O)CNC(=O)CCC(=O)NCCN(CCN)CCNC(=O)CCC(=O)NCC(=O)NCCCCNC(=O)NCc2ccc(CNC(=O)[C@@H](CCCNC(=N)N)NC(=O)C(c3ccccc3)c3ccccc3)cc2)cc1
–	–	2000 nM	63 nM	–	NC(=NCCC[C@@H](NC(=O)C(c1ccccc1)c1ccccc1)C(=O)NCc1ccc(O)cc1)NC(=O)CCCCCCC(=O)NC(N)=NCCC[C@@H](NC(=O)C(c1ccccc1)c1ccccc1)C(=O)NCc1ccc(O)cc1
–	–	> 5000 nM	71 nM	–	NCCCOCCOCCOCCNC(=O)CCC(=O)NCCNC(=O)/N=C(\N)NCCC[C@@H](NC(=O)C(c1ccccc1)c1ccccc1)C(=O)NCc1ccc(CNC(N)=O)cc1
–	–	–	9.9 nM	–	NCCCCCCNC(=O)/N=C(/N)NCCC[C@@H](NC(=O)C(c1ccccc1)c1ccccc1)C(=O)NCc1ccc(O)cc1
34 nM	> 5000 nM	210 nM	53 nM	780 nM	NCCN(CCNC(=O)c1ccc(C(=O)NCCCCNC(=O)/N=C(/N)NCCC[C@@H](NC(=O)C(c2ccccc2)c2ccccc2)C(=O)NCc2ccc(O)cc2)cc1)CCNC(=O)c1ccc(C(=O)NCCCCNC(=O)/N=C(/N)NCCC[C@@H](NC(=O)C(c2ccccc2)c2ccccc2)C(=O)NCc2ccc(O)cc2)cc1
> 5000 nM	–	> 5000 nM	200 nM	–	NCCCCCCNC(=O)/N=C(/N)NCCC[C@@H](NC(=O)C(c1ccccc1)c1ccccc1)C(=O)NCc1ccc(CNC(N)=O)cc1
–	> 5000 nM	3800 nM	130 nM	–	N=C(N)NCCOCCOCCNC(=O)/N=C(/N)NCCC[C@@H](NC(=O)C(c1ccccc1)c1ccccc1)C(=O)NCc1ccc(O)cc1
–	–	–	73 nM	–	CCC(=O)NCC(=O)NCCCCNC(=O)NCc1ccc(CNC(=O)[C@@H](CCCNC(=N)N)NC(=O)C(c2ccccc2)c2ccccc2)cc1
–	–	> 5000 nM	77 nM	–	NCCOCCOCCNC(=O)CCC(=O)NCCNC(=O)/N=C(\N)NCCC[C@@H](NC(=O)C(c1ccccc1)c1ccccc1)C(=O)NCc1ccc(CNC(N)=O)cc1
–	–	–	31 nM	–	NCCOCCOCCNC(=O)/N=C(/N)NCCC[C@@H](NC(=O)C(c1ccccc1)c1ccccc1)C(=O)NCc1ccc(CNC(N)=O)cc1
–	–	> 5000 nM	360 nM	–	NCCNC(=O)CCC(=O)NCCNC(=O)/N=C(\N)NCCC[C@@H](NC(=O)C(c1ccccc1)c1ccccc1)C(=O)NCc1ccc(CNC(N)=O)cc1
–	–	> 5000 nM	86 nM	–	NCCC(=O)NCCNC(=O)CCC(=O)NCCNC(=O)/N=C(\N)NCCC[C@@H](NC(=O)C(c1ccccc1)c1ccccc1)C(=O)NCc1ccc(CNC(N)=O)cc1
33 nM	> 5000 nM	270 nM	40 nM	1300 nM	NCCN(CCNC(=O)CCC(=O)NCCCCCCNC(=O)/N=C(/N)NCCC[C@@H](NC(=O)C(c1ccccc1)c1ccccc1)C(=O)NCc1ccc(O)cc1)CCNC(=O)CCC(=O)NCCCCCCNC(=O)/N=C(/N)NCCC[C@@H](NC(=O)C(c1ccccc1)c1ccccc1)C(=O)NCc1ccc(O)cc1
–	–	–	14 nM	–	N=C(N)NCCC[C@@H](NC(=O)C(c1ccccc1)c1ccccc1)C(=O)NCc1ccc(CNC(=O)NCCCCNC(=O)CN)cc1
> 5000 nM	–	> 5000 nM	41 nM	–	N=C(N)NCCC[C@@H](NC(=O)C(c1ccccc1)c1ccccc1)C(=O)NCc1ccc(CNC(=O)NCCCCN)cc1
–	> 5000 nM	> 5000 nM	7.3 nM	> 5000 nM	NCCOCCOCCNC(=O)/N=C(/N)NCCC[C@@H](NC(=O)C(c1ccccc1)c1ccccc1)C(=O)NCc1ccc(O)cc1
